Results published in patent EP4667483A1, “HUMAN TRANSFERRIN RECEPTOR-BINDING PEPTIDE” (JCR Pharmaceuticals Co., Ltd., priority 2023, dated 2024).
pKd: −log10 of the molar value. Bridge positions count the residues as written; N and C are the ends. Square brackets hold non-standard residues; d marks the D form. Peptide text beside a SMILES is read from it. * marks the point of attachment. Trp(1-CH2COOH) = N[C@@H](Cc1cn(CC(=O)O)c2ccccc12)C(=O)O; Nle(6-morpholino) = N[C@@H](CCCCN1CCOCC1)C(=O)O; Phe(3-COOH) = N[C@@H](Cc1cccc(C(=O)O)c1)C(=O)O; NMePhe(3-Cl) = CN[C@@H](Cc1cccc(Cl)c1)C(=O)O; NMePhe(4-Cl) = CN[C@@H](Cc1ccc(Cl)cc1)C(=O)O; 3Pal(6-NH2) = Nc1ccc(C[C@H](N)C(=O)O)cn1; NMeY = CN[C@@H](Cc1ccc(O)cc1)C(=O)O; Nva(3-Et) = CCC(CC)[C@H](N)C(=O)O; NH(CH2CH2O)4Me = COCCOCCOCCOCCN*; hArg = N=C(N)NCCCC[C@H](N)C(=O)O; 4Pal = N[C@@H](Cc1ccncc1)C(=O)O; PEG4 = NCCOCCOCCOCCOCCC(=O)O; Carboxymethyl = O=C(O)C*

Tests used:
Assay type in all cases: binding
[1] = biological target: T1, human transferrin receptor (hTfR) (Homo sapiens, UniProt P02786); experiment: SPR measurement under pH 7.4 conditions (Biacore T200, CM3 chip, hTfR captured by His Tag antibody); conditions: SPR, pH 7.4; read-out: hTfR SPR pH7.4 KD
[2] = biological target: T1, human transferrin receptor (hTfR); experiment: Evaluation of pH dependence (ratio of SPR koff or KD at pH 6.0 to pH 7.4); conditions: ratio of koff at pH 6.0 to pH 7.4
Experimental: The ratio of the calculated koff or KD values under pH 6.0 conditions to those under pH 7.4 conditions was calculated to check pH dependency.

[3] = biological target: T1, human transferrin receptor (hTfR); experiment: SPR measurement under pH 6.0 conditions (Biacore T200, NTA chip, immobilized hTfR); conditions: SPR, pH 6.0; read-out: hTfR SPR pH6.0 KD

T1 sequence (P02786 whole entry): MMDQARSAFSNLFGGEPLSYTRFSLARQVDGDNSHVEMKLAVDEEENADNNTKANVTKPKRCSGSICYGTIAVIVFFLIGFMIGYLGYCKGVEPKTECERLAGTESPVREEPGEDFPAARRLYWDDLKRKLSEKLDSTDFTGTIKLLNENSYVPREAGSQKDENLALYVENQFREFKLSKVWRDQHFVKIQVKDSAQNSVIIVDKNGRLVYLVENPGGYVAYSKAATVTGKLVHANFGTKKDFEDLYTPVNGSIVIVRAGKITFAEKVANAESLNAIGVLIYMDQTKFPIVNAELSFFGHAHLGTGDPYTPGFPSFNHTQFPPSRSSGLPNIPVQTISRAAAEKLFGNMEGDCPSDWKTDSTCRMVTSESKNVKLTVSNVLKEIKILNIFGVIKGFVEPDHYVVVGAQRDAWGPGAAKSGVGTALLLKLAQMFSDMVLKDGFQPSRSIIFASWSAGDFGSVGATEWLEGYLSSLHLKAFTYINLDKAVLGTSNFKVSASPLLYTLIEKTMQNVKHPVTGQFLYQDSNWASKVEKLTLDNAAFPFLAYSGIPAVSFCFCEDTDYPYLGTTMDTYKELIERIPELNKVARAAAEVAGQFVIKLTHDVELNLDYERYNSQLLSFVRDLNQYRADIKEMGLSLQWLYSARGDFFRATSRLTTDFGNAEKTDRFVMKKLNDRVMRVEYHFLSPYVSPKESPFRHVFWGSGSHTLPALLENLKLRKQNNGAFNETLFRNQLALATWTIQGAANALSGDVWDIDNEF

Row | SMILES | pKd [1] | dependency koff pH6.0/7.4 [2] | pKd [3]
1 | CCC(CC)[C@@H]1NC(=O)[C@H](Cc2ccc(OCC(=O)O)cc2)NC(=O)[C@H](Cc2ccc(O)cc2)NC(=O)[C@H](CC(N)=O)NC(=O)[C@H](Cc2cn(CC(=O)O)c3ccccc23)NC(=O)[C@H](C(C)C)NC(=O)[C@H](Cc2cccc(Cl)c2)N(C)C(=O)[C@H](C(C)C)NC(=O)[C@H](C)NC(=O)CSC[C@@H](C(=O)NCCOCCOCCOCCOCCC(N)=O)NC(=O)[C@H](Cc2ccc(O)cc2)N(C)C(=O)[C@H](Cc2cccc(C(=O)O)c2)NC(=O)[C@H](CCCNC(=N)N)NC(=O)[C@H](CCC(N)=O)NC(=O)[C@H]([C@@H](C)CC)NC1=O [compound 88] ({CH2CO}-AV[NMePhe(3-Cl)]V[Trp(1-CH2COOH)]NYY(Carboxymethyl)[Nva(3-Et)]IQR[Phe(3-COOH)][NMeY]C[PEG4]-NH2; thioether N-15) | 8.16 | 8.60 | 7.29
2 | CCC(CC)[C@@H]1NC(=O)[C@H](Cc2ccc(OCC(=O)O)cc2)NC(=O)[C@H](Cc2ccc(O)cc2)NC(=O)[C@H](CC(N)=O)NC(=O)[C@H](Cc2cn(CC(=O)O)c3ccccc23)NC(=O)[C@H](C(C)C)NC(=O)[C@H](Cc2cccc(Cl)c2)N(C)C(=O)[C@H](C(C)C)NC(=O)[C@H](C)NC(=O)CSC[C@@H](C(=O)NCCOCCOCCOCCOCCC(N)=O)NC(=O)[C@H](Cc2ccc(Cl)cc2)N(C)C(=O)[C@H](Cc2cccc(C(=O)O)c2)NC(=O)[C@H](CCCNC(=N)N)NC(=O)[C@H](CCC(N)=O)NC(=O)[C@H]([C@@H](C)CC)NC1=O [compound 92] ({CH2CO}-AV[NMePhe(3-Cl)]V[Trp(1-CH2COOH)]NYY(Carboxymethyl)[Nva(3-Et)]IQR[Phe(3-COOH)][NMePhe(4-Cl)]C[PEG4]-NH2; thioether N-15) | 7.86 | 5.47 | 7.36
3 | CC[C@H](C)[C@@H]1NC(=O)[C@H](Cc2ccc(OCC(=O)O)cc2)NC(=O)[C@H](Cc2ccc(N)nc2)NC(=O)[C@H](CC(N)=O)NC(=O)[C@H](Cc2c[nH]c3ccccc23)NC(=O)[C@H](C(C)C)NC(=O)[C@H](Cc2cccc(Cl)c2)N(C)C(=O)[C@H](C(C)C)NC(=O)[C@H](C)NC(=O)CSC[C@@H](C(=O)NCCOCCOCCOCCOCCC(N)=O)NC(=O)[C@H](Cc2ccc(O)cc2)N(C)C(=O)[C@H](Cc2cccc(C(=O)O)c2)NC(=O)[C@H](CCCNC(=N)N)NC(=O)[C@H](CCC(=O)NCCOCCOCCOCCOC)NC(=O)[C@H]([C@@H](C)CC)NC1=O [compound 70] ({CH2CO}-AV[NMePhe(3-Cl)]VWN[3Pal(6-NH2)]Y(Carboxymethyl)IIE(NH(CH2CH2O)4Me)R[Phe(3-COOH)][NMeY]C[PEG4]-NH2; thioether N-15) | 8.16 | 20.00 | 7.37
4 | CCC(CC)[C@@H]1NC(=O)[C@H](Cc2ccc(OCC(=O)O)cc2)NC(=O)[C@H](Cc2ccc(O)cc2)NC(=O)[C@H](CC(N)=O)NC(=O)[C@H](Cc2c[nH]c3ccccc23)NC(=O)[C@H](C(C)C)NC(=O)[C@H](Cc2cccc(Cl)c2)N(C)C(=O)[C@H](C(C)C)NC(=O)[C@H](C)NC(=O)CSC[C@@H](C(=O)NCCOCCOCCOCCOCCC(N)=O)NC(=O)[C@H](Cc2ccc(O)cc2)N(C)C(=O)[C@H](Cc2cccc(C(=O)O)c2)NC(=O)[C@H](CCCNC(=N)N)NC(=O)[C@H](CCC(N)=O)NC(=O)[C@H]([C@@H](C)CC)NC1=O [compound 75] ({CH2CO}-AV[NMePhe(3-Cl)]VWNYY(Carboxymethyl)[Nva(3-Et)]IQR[Phe(3-COOH)][NMeY]C[PEG4]-NH2; thioether N-15) | 8.79 | 34.44 | 8.20
5 | CC[C@H](C)[C@@H]1NC(=O)[C@H](Cc2ccc(OCC(=O)O)cc2)NC(=O)[C@H](Cc2ccc(O)cc2)NC(=O)[C@H](CC(N)=O)NC(=O)[C@H](Cc2cn(CC(=O)O)c3ccccc23)NC(=O)[C@H](C(C)C)NC(=O)[C@H](Cc2cccc(Cl)c2)N(C)C(=O)[C@H](C(C)C)NC(=O)[C@H](C)NC(=O)CSC[C@@H](C(=O)NCCOCCOCCOCCOCCC(N)=O)NC(=O)[C@H](Cc2ccc(O)cc2)N(C)C(=O)[C@H](Cc2ccncc2)NC(=O)[C@H](CCCCN2CCOCC2)NC(=O)[C@H](CCCCN2CCOCC2)NC(=O)[C@H]([C@@H](C)CC)NC1=O [compound 69] ({CH2CO}-AV[NMePhe(3-Cl)]V[Trp(1-CH2COOH)]NYY(Carboxymethyl)II[Nle(6-morpholino)][Nle(6-morpholino)][4Pal][NMeY]C[PEG4]-NH2; thioether N-15) | 8.07 | 9.63 | 7.47
6 | CC[C@H](C)[C@@H]1NC(=O)[C@H](Cc2ccc(OCC(=O)O)cc2)NC(=O)[C@H](Cc2ccc(O)cc2)NC(=O)[C@H](CC(N)=O)NC(=O)[C@H](Cc2cn(CC(=O)O)c3ccccc23)NC(=O)[C@H](C(C)C)NC(=O)[C@H](Cc2cccc(Cl)c2)N(C)C(=O)[C@H](C(C)C)NC(=O)[C@H](C)NC(=O)CSC[C@@H](C(=O)NCCOCCOCCOCCOCCC(N)=O)NC(=O)[C@H](Cc2ccc(O)cc2)N(C)C(=O)[C@H](Cc2cccc(C(=O)O)c2)NC(=O)[C@H](CCCNC(=N)N)NC(=O)[C@H](CCC(N)=O)NC(=O)[C@H](CCCCNC(=N)N)NC1=O [compound 71] ({CH2CO}-AV[NMePhe(3-Cl)]V[Trp(1-CH2COOH)]NYY(Carboxymethyl)I[hArg]QR[Phe(3-COOH)][NMeY]C[PEG4]-NH2; thioether N-15) | 7.74 | 12.78 | 7.12
7 | CC[C@H](C)[C@@H]1NC(=O)[C@H](Cc2ccc(OCC(=O)O)cc2)NC(=O)[C@H](Cc2ccc(O)cc2)NC(=O)[C@H](CC(=O)NC)NC(=O)[C@H](Cc2c[nH]c3ccccc23)NC(=O)[C@H](C(C)C)NC(=O)[C@H](Cc2cccc(Cl)c2)N(C)C(=O)[C@H](C(C)C)NC(=O)[C@H](C)NC(=O)CSC[C@@H](C(=O)NCCOCCOCCOCCOCCC(N)=O)NC(=O)[C@H](Cc2ccc(O)cc2)N(C)C(=O)[C@H](Cc2cccc(C(=O)O)c2)NC(=O)[C@H](CCCNC(=N)N)NC(=O)[C@H](CCC(N)=O)NC(=O)[C@H]([C@@H](C)CC)NC1=O [compound 74] ({CH2CO}-AV[NMePhe(3-Cl)]VWD(NHMe)YY(Carboxymethyl)IIQR[Phe(3-COOH)][NMeY]C[PEG4]-NH2; thioether N-15) | 7.34 | 3.53 | 7.12
8 | CCC(CC)[C@@H]1NC(=O)[C@H](Cc2ccc(OCC(=O)O)cc2)NC(=O)[C@H](Cc2ccc(N)nc2)NC(=O)[C@H](CC(N)=O)NC(=O)[C@H](Cc2cn(CC(=O)O)c3ccccc23)NC(=O)[C@H](C(C)C)NC(=O)[C@H](Cc2cccc(Cl)c2)N(C)C(=O)[C@H](C(C)C)NC(=O)[C@H](C)NC(=O)CSC[C@@H](C(=O)NCCOCCOCCOCCOCCC(N)=O)NC(=O)[C@H](Cc2ccc(O)cc2)N(C)C(=O)[C@H](Cc2cccc(C(=O)O)c2)NC(=O)[C@H](CCCNC(=N)N)NC(=O)[C@H](CCC(N)=O)NC(=O)[C@H]([C@@H](C)CC)NC1=O [compound 84] ({CH2CO}-AV[NMePhe(3-Cl)]V[Trp(1-CH2COOH)]N[3Pal(6-NH2)]Y(Carboxymethyl)[Nva(3-Et)]IQR[Phe(3-COOH)][NMeY]C[PEG4]-NH2; thioether N-15) | 5.72 | 17.42 | 6.66
